Experimental data from patent publication EP0700399B1, “36-DERIVATIVES OF RIFAMYCINS AND THEIR USE AS ANTIMICROBIAL AGENTS” (GRUPPO LEPETIT S.P.A., priority 1993, dated 1994).
Where two headings read alike, the source gives them in different places.

Legend:
Streptococcus pyogenes = experiment: MIC by broth microdilution; type: cell-based; conditions: internal code L49; for MIC: Streptococcus pyogenes, read-out: MIC of the compounds
[1] = tested on: Bacteroides fragilis ATCC 25285; experiment: MIC by broth microdilution; type: cell-based; conditions: Bacteroides fragilis, ATCC25285; internal code L1011; anaerobic, 48 hours; read-out: MIC of the compounds
Staphylococcus aureus = experiment: MIC by broth microdilution; type: cell-based; conditions: internal code L165; for MIC: Staphylococcus aureus, read-out: MIC of the compounds
[2] = tested on: Propionibact. acnes ATCC 6919; experiment: MIC by broth microdilution; type: cell-based, Propionibacterium acnes; conditions: Cutibacterium acnes, ATCC6919; internal code L1014; anaerobic, 48 hours; read-out: MIC of the compounds
Staph. aureus rifa-r^(1) = experiment: MIC by broth microdilution; type: cell-based; conditions: for MIC: Staphylococcus aureus, read-out: MIC of the compounds
Staph. aureus rifa-r^(2) = experiment: MIC by broth microdilution; type: cell-based; conditions: for MIC: Staphylococcus aureus, read-out: MIC of the compounds
[3] = tested on: Enterococc. faecalis ATCC 7080; experiment: MIC by broth microdilution; type: cell-based, Enterococcus faecalis; conditions: internal code L149; for MIC: Enterococcus faecalis, ATCC7080, read-out: MIC of the compounds
Clostridium perfringens = experiment: microbe, parasite or virus in culture; type: cell-based; conditions: read-out: MIC of the compounds
[4] = tested on: Proteus vulgaris ATCC 881; experiment: MIC by broth microdilution; type: cell-based; conditions: internal code L79; for MIC: Proteus vulgaris, ATCC881, read-out: MIC of the compounds
[5] = tested on: Esch. coli K12 rifa-r^(1); experiment: MIC by broth microdilution; type: cell-based, Escherichia coli; conditions: Escherichia coli, read-out: MIC of the compounds
Strept. pneumoniae = experiment: MIC by broth microdilution; type: cell-based; conditions: internal code L44; for MIC: Streptococcus pneumoniae, read-out: MIC of the compounds
Neisseria gonorrhoeae = experiment: MIC by broth microdilution; type: cell-based; conditions: internal code L997, 5% carbon dioxide, 48 hours; for MIC: Neisseria gonorrhoeae, read-out: MIC of the compounds
[6] = tested on: Staph. epidermidis ATCC 12228; experiment: MIC by broth microdilution; type: cell-based; conditions: internal code L147; for MIC: Staphylococcus epidermidis, ATCC12228, read-out: MIC of the compounds
[7] = tested on: Haemoph. influenzae ATCC 19418; experiment: MIC by broth microdilution; type: cell-based, Haemophilus influenzae; conditions: internal code L970, 5% carbon dioxide, 48 hours; for MIC: Haemophilus influenzae, ATCC19418, read-out: MIC of the compounds
[8] = tested on: Staph. haemolyticus rifa-r^(2); experiment: MIC by broth microdilution; type: cell-based; conditions: for MIC: Staphylococcus haemolyticus, read-out: MIC of the compounds
[9] = tested on: Pseudomonas aerug. ATCC10145; experiment: MIC by broth microdilution; type: cell-based, Pseudomonas aeruginosa; conditions: internal code L4; for MIC: Pseudomonas, ATCC10145, read-out: MIC of the compounds
[10] = tested on: Moraxella catarr. ATCC 8178; experiment: MIC by broth microdilution; type: cell-based, Moraxella catharralis; conditions: ATCC8178, internal code L76, read-out: MIC of the compounds
[11] = tested on: Esch. coli K12 hyperpermeable; experiment: MIC by broth microdilution; type: cell-based, Escherichia coli; conditions: Escherichia coli, read-out: MIC of the compounds
Klebsiella pneumoniae = experiment: MIC by broth microdilution; type: cell-based; conditions: internal code L142, read-out: MIC of the compounds
Escherichia coli = experiment: MIC by broth microdilution; type: cell-based; conditions: internal code L47; for MIC: Escherichia coli, read-out: MIC of the compounds
Esch. coli K12 wild type = experiment: MIC by broth microdilution; type: cell-based; conditions: Escherichia coli, K12WILDTYPE, internal code G210, read-out: MIC of the compounds
[12] = tested on: Bacteroides fragilis ATCC 23745; experiment: MIC by broth microdilution; type: cell-based; conditions: internal code L1010, anaerobic, 48 hours; for MIC: Bacteroides fragilis, ATCC23745, read-out: MIC of the compounds
[13] = tested on: Staphylococcus aureus Smith (Int. code L 819); experiment: Experimental septicemia in mice; type: in vivo; conditions: treated once immediately after infection, survival on the 7th day; for ED50: Staphylococcus aureus, 168 h
Method: Some compounds of the invention were also tested in experimental septicemia in mice infected with Staphylococcus aureus Smith (Int. code L 819). For this purpose, groups of five mice were infected intraperitoneally with about 1 x 10^6 CFU of S. aureus Smith suspended in 0.5 ml of Difco bacteriological mucin. Untreated animals died within 48 hours. The other animals were treated once immediately after infection. On the 7th day the value of ED50 (expressed in mg/kg) was calculated by the method of Spearman-[…]., Statistical method in biological assay, page 254, C. Griffin Ltd., London, 1952), on the basis of the percentage of animals surviving at each dose.

Staph. aureus Smith = experiment: MIC by broth microdilution; type: cell-based; conditions: internal code L819

Compound	MIC (Streptococcus pyogenes) [µg/mL]	MIC [1] [µg/mL]	MIC (Staphylococcus aureus) [µg/mL]	MIC [2] [µg/mL]	MIC (Staph. aureus rifa-r^(1)) [µg/mL]	MIC (Staph. aureus rifa-r^(2)) [µg/mL]	MIC [3] [µg/mL]	MIC (Clostridium perfringens) [µg/mL]	MIC [4] [µg/mL]	MIC [5] [µg/mL]	MIC (Strept. pneumoniae) [µg/mL]	MIC (Neisseria gonorrhoeae) [µg/mL]	MIC [6] [µg/mL]	MIC [7] [µg/mL]	MIC [8] [µg/mL]	MIC [9] [µg/mL]	MIC [10] [µg/mL]	MIC [11] [µg/mL]	MIC (Klebsiella pneumoniae) [µg/mL]	MIC (Escherichia coli) [µg/mL]	further results
CO[C@H]1/C=C/O[C@@]2(C)Oc3c(C)c(O)c4c(c3C2=O)C(=O)C=C(NC(=O)/C(C)=C\C=C\[C@H](C)[C@H](O)[C@@H](C)[C@@H](O)[C@@H](C)[C@H](OC(=O)CCl)[C@@H]1C)C4=O [Compound C3, 36-Chlororifamycin S]	0.016	0.13	0.004	0.03	1	16	0.25	0.0003	8	> 128	0.03	0.13	0.008	1	64	32	0.008	0.25	64	32	–
CO[C@H]1/C=C/O[C@@]2(C)Oc3c(C)c(O)c4c(c3C2=O)C(=O)C(N2CCOCC2)=C(NC(=O)/C(C)=C\C=C\[C@H](C)[C@H](O)[C@@H](C)[C@@H](O)[C@@H](C)[C@H](OC(=O)CBr)[C@@H]1C)C4=O [Compound C8, 36-Bromo-3-(4-morpholinyl)rifamycin S]	0.06	0.03	0.002	0.004	0.5	0.5	0.5	0.001	8	> 128	0.03	0.03	0.001	0.13	16	16	0.002	≤ 0.13	16	8	–
CO[C@H]1/C=C/O[C@@]2(C)Oc3c(C)c(O)c4c(c3C2=O)C(=O)C=C(NC(=O)/C(C)=C\C=C\[C@H](C)[C@H](O)[C@@H](C)[C@@H](O)[C@@H](C)[C@H](OC(=O)COC(C)=O)[C@@H]1C)C4=O [Compound C13, 36-Acetyloxyrifamycin S]	0.008	0.5	0.002	0.03	0.25	4	0.13	0.0005	8	> 128	0.008	0.25	0.001	0.5	32	32	0.004	≤ 0.13	64	16	–
CCN(CC)CC(=O)O[C@H]1[C@H](C)[C@H](O)[C@H](C)[C@@H](O)[C@@H](C)/C=C/C=C(/C)C(=O)NC2=CC(=O)c3c(c(O)c(C)c4c3C(=O)[C@@](C)(O/C=C/[C@H](OC)[C@H]1C)O4)C2=O [Compound C12, 36-Diethylaminorifamycin S]	0.06	–	0.03	0.5	–	32	0.25	–	8	> 128	0.03	1	0.008	1	64	32	–	≤ 0.13	–	32	MIC (Esch. coli K12 wild type): 64 µg/mL; MIC [12]: 2 µg/mL
CO[C@H]1/C=C/O[C@@]2(C)Oc3c(C)c(O)c4c(c3C2=O)C(=O)C(N2CCOCC2)=C(NC(=O)/C(C)=C\C=C\[C@H](C)[C@H](O)[C@@H](C)[C@@H](O)[C@@H](C)[C@H](OC(=O)CO)[C@@H]1C)C4=O [Compound C15, 36-Hydroxy-3-(4-morpholinyl)rifamycin S]	0.03	0.03	0.002	0.016	2	4	0.5	0.001	8	> 128	0.016	0.03	0.001	0.06	4	16	0.002	≤ 0.13	8	8	–
CO[C@H]1/C=C/O[C@@]2(C)Oc3c(C)c(O)c4c(c3C2=O)C(=O)C=C(NC(=O)/C(C)=C\C=C\[C@H](C)[C@H](O)[C@@H](C)[C@@H](O)[C@@H](C)[C@H](OC(=O)CBr)[C@@H]1C)C4=O [Compound C1, 36-Bromorifamycin S]	0.03	1	0.004	0.016	0.25	2	1	0.0003	16	> 128	0.03	1	0.004	1	32	32	0.008	0.25	128	32	–
CCn1cc(C(=O)OCC(=O)O[C@H]2[C@H](C)[C@H](O)[C@H](C)[C@@H](O)[C@@H](C)/C=C/C=C(/C)C(=O)NC3=C(N4CCOCC4)C(=O)c4c(c(O)c(C)c5c4C(=O)[C@@](C)(O/C=C/[C@H](OC)[C@H]2C)O5)C3=O)c(=O)c2cc(F)c(N3CCN(C)CC3)cc21 [Compound C24, 36-{[1-Ethyl-6-fluoro-1,4-dihydro-7-(4-methyl-1-piperazinyl)-4-oxo-3-quinolinyl]carbonyloxy}-3-(4-morpholinyl) rifamycin S]	0.06	–	0.06	0.06	0.06	0.13	0.13	–	16	–	0.008	0.06	0.008	0.13	0.13	16	–	–	–	16	ED50 ([13]; intravenous, read-out: ED50 IV route): 3.8 mg/kg; ED50 ([13]; sc, subcutaneous, read-out: ED50 SC route): > 50 mg/kg; MIC [12]: 0.13 µg/mL; MIC (Staph. aureus Smith; Staphylococcus aureus, read-out: MIC of the compounds): 0.06 µg/mL
36-[(1-Ethyl-6-fluoro-1,4-dihydro-7-(4-methyl-1-piperazinyl)-4-oxo-3-quinolinyl)carbonyloxy]-2'-(diethylamino)rifamycin P [Compound C22]	–	–	–	–	–	–	–	–	–	–	–	–	–	–	–	–	–	–	–	–	MIC of the compounds (Streptococcus pyogenes): 0.06 µg/mL; MIC of the compounds (Staphylococcus aureus): 0.06 µg/mL; MIC of the compounds (Staph. aureus rifa-r^(1); internal code L721, rifampicin resistant strain, moderately resistant): 0.13 µg/mL; MIC of the compounds (Staph. aureus rifa-r^(2); internal code L1282, rifampicin resistant strain, highly resistant): 1 µg/mL; MIC of the compounds [3]: 2 µg/mL; MIC of the compounds [4]: 64 µg/mL; MIC of the compounds (Strept. pneumoniae): 0.06 µg/mL; MIC of the compounds (Neisseria gonorrhoeae): 0.25 µg/mL; MIC of the compounds [6]: 0.06 µg/mL; MIC of the compounds [7]: 0.5 µg/mL; MIC of the compounds ([8]; internal code L602, rifampicin resistant strain, highly resistant): 0.5 µg/mL; MIC of the compounds [9]: 32 µg/mL; ED50 IV route ([13]; intravenous): 0.7 mg/kg; ED50 SC route ([13]; subcutaneous): 5.3 mg/kg; MIC of the compounds (Escherichia coli): ≥128 µg/mL; MIC of the compounds [12]: 0.13 µg/mL; MIC of the compounds (Staph. aureus Smith): 0.06 µg/mL
